Measurements published in article PMC9442787, “A Modified Yeast Two-Hybrid Platform Enables Dynamic Control of Expression Intensities to Unmask Properties of Protein–Protein Interactions” (ACS Synthetic Biology, 2022).

Assays:
SiGID1b1 = target: T1, SiGID1b1 (Solanum lycopersicum, UniProt A0A3Q7J108); assay: adjustable yeast two-hybrid, mScarlet-I fluorescence; assay type: cell-based; settings: interaction with PROCERA; estradiol/progesterone-titrated expression; 30 °C
T1 construct: gene GID1b-1; receptor fused to GAL4 BD (pBD-pZ-FLAG), PROCERA fused to GAL4 AD (pACT-Lex), in yeast Y190; with DELLA protein GAI (PROCERA)
T1 sequence (A0A3Q7J108 1-345): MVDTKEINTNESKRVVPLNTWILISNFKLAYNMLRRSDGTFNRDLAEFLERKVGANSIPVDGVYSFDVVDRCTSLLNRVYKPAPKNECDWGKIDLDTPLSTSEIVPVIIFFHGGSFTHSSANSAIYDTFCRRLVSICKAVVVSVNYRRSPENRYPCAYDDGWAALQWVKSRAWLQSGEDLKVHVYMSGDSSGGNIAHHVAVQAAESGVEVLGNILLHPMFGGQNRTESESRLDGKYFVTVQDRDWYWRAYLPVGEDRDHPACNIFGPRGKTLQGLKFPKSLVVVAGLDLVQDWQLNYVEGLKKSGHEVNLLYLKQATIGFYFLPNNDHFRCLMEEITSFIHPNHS
T1 sequence (Q7Y1B6 1-588 partner): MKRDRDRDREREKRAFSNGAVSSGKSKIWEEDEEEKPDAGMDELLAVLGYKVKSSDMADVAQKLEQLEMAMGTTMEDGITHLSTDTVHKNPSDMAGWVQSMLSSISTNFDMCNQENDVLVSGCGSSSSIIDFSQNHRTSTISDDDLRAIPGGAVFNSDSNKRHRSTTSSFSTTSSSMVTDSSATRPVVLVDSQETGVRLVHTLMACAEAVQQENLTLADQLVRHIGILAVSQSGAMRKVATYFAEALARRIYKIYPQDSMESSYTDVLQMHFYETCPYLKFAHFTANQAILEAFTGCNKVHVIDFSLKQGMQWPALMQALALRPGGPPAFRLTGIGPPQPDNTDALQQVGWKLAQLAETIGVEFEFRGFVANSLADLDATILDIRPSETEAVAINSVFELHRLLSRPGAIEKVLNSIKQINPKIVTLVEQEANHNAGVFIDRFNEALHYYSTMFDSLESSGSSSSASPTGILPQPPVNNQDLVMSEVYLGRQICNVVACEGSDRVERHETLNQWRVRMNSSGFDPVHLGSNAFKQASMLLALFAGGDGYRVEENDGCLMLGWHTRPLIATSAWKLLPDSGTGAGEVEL

PYL7 = PYL7 (Arabidopsis thaliana, UniProt Q1ECF1); settings: interaction with PP2C (HAB1 or ABI1 not told); low inducer concentrations; 30 °C
Chain of PYL7 (Q1ECF1 whole entry): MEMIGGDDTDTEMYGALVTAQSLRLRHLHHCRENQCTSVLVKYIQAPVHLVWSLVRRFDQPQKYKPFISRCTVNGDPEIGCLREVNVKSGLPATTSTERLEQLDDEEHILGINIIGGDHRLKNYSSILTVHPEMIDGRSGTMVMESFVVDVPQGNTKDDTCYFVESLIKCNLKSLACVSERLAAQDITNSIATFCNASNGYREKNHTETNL
Chain of PYL7 (Q9CAJ0 whole entry partner): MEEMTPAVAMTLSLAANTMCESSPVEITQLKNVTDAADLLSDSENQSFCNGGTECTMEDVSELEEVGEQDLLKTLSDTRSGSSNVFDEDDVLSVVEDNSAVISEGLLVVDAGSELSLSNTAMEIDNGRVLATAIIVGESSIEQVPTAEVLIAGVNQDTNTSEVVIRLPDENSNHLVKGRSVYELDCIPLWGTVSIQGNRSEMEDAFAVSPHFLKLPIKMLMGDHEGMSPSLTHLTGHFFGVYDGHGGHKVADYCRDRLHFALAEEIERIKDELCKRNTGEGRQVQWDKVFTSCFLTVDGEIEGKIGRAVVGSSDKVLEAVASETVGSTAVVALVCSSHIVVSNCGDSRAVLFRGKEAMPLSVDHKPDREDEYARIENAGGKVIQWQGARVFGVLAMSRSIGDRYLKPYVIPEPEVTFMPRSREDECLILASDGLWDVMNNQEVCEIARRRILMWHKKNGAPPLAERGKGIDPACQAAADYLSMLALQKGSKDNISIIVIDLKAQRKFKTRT

| Structure (SMILES) | adjustable yeast two-hybrid, mScarlet-I fluorescence (SiGID1b1) | maximal ratio of signal with ABA to mock (PYL7) |
| --- | --- | --- |
| C=C1C[C@]23C[C@@]1(O)CC[C@H]2[C@@]12C=C[C@H](O)[C@@](C)(C(=O)O1)[C@H]2[C@@H]3C(=O)O [GA3] | SiGID1b1 displayed full dependency on GA presence for interaction with SiPROCERA | – |
| CC1=CC(=O)CC(C)(C)[C@@]1(O)/C=C/C(C)=C\C(=O)O [abscisic acid] | – | 4.9 |
